Test results taken from patent US20260193226A1, “MICROBIOCIDAL TETRAHYDROISOQUINOLINE DERIVATIVES” (SYNGENTA CROP PROTECTION AG, priority 2022, published 2026).

Tests used:
[1] = test system: Mycosphaerella arachidis (Cercospora arachidicola); assay: Mycosphaerella arachidis (Cercospora arachidicola) / liquid culture (early leaf spot); format: cell-based; conditions: compared to untreated control
Experimental: (§1) Example B9: Mycosphaerella arachidis (Cercospora arachidicola)/Liquid Culture (Early Leaf Spot) Conidia of the fungus from cryogenic storage are directly mixed into nutrient broth (PDB potato dextrose broth). After placing a (DMSO) solution of test compound into a microtiter plate (96-well format), the nutrient broth containing the fungal spores is added. The test plates are incubated at 24° C. and the inhibition of growth is determined photometrically 4 to 5 days after application.

[2] = test system: Mycosphaerella graminicola (Septoria tritici); assay: Mycosphaerella graminicola (Septoria tritici) / liquid culture (Septoria blotch); format: cell-based; conditions: Zymoseptoria tritici, compared to untreated control
Experimental: as §1, with “B15:” for “B9:”, “graminicola (Septoria tritici)/Liquid” for “arachidis (Cercospora arachidicola)/Liquid”, “(Septoria Blotch)” for “(Early Leaf Spot)”

[3] = test system: Pyrenophora teres; assay: Pyrenophora teres / barley / leaf disc preventative (net blotch); format: in vivo; conditions: foliar, compared to untreated control
Experimental: Example B12: Pyrenophora teres/Barley/Leaf Disc Preventative (Net Blotch) Barley leaf segments cv. Hasso are placed on agar in a multiwell plate (24-well format) and sprayed with the formulated test compound diluted in water. The leaf segments are inoculated with a spore suspension of the fungus 2 days after application. The inoculated leaf segments are incubated at 20° C. and 65% rh under a light regime of 12 h light/12 h darkness in a climate cabinet and the activity of a compound is assessed as disease control compared to untreated when an appropriate level of disease damage appears in untreated check leaf segments (5 to 7 days after application).

[4] = test system: Monographella nivalis (Microdochium nivale); assay: Monographella nivalis (Microdochium nivale) / liquid culture (foot rot cereals); format: cell-based; conditions: compared to untreated control
Experimental: as §1, with “B8: Monographella nivalis (Microdochium nivale)/Liquid” for “B9: Mycosphaerella arachidis (Cercospora arachidicola)/Liquid”, “(Foot Rot Cereals)” for “(Early Leaf Spot)”

With Cc1c([C@H]2CN(C(=O)NCCCC3CC3)[C@@H](C)c3ccccc32)cnn1C [Compound P-51, (1S,4S)-N-(3-cyclopropylpropyl)-4-(1,5-dimethylpyrazol-4-yl)-1-methyl-3,4-dihydro-1H-isoquinoline-2-carboxamide] the inhibition of growth at 20 ppm [1] was ≥ 80% and the inhibition of growth at 20 ppm [2] was ≥ 80%.
In the case of Cc1c(C2CN(C(=O)OCCCCC(F)F)Cc3ccccc32)cnn1C (centres unmarked) [Compound P-54, 5,5-difluoropentyl 4-(1,5-dimethylpyrazol-4-yl)-3,4-dihydro-1H-isoquinoline-2-carboxylate], the inhibition of growth at 20 ppm [1] is reported as ≥ 80% and the inhibition of growth at 20 ppm [2] is reported as ≥ 80%.
Cc1c(C2CN(C(=O)NCCCCC(F)F)Cc3ccccc32)cnn1C (centres unmarked) [Compound P-50, N-(5,5-difluoropentyl)-4-(1,5-dimethylpyrazol-4-yl)-3,4-dihydro-1H-isoquinoline-2-carboxamide] was tested, and the inhibition of growth at 20 ppm [2] was ≥ 80% and the pest or weed control at 200 ppm [3] was ≥ 80%.
Cc1c([C@H]2CN(C(=O)CCCC=C(F)F)[C@@H](C)c3ccccc32)cnn1C (racemic) [Compound P-26, 6,6-difluoro-1-[rac-(1S,4S)-4-(1,5-dimethylpyrazol-4-yl)-1-methyl-3,4-dihydro-1H-isoquinolin-2-yl]hex-5-en-1-one] was tested, and the inhibition of growth at 20 ppm [1] was ≥ 80% and the inhibition of growth at 20 ppm [2] was ≥ 80%.
With Cc1c(C2CN(C(=O)NCCCCCF)Cc3ccccc32)cnn1C (centres unmarked) [Compound P-49, 4-(1,5-dimethylpyrazol-4-yl)-N-(5-fluoropentyl)-3,4-dihydro-1H-isoquinoline-2-carboxamide] the inhibition of growth at 20 ppm [2] was ≥ 80% and the pest or weed control at 200 ppm [3] was ≥ 80%.
In the case of Cc1c(C2CN(C(=O)CSc3ccc(F)cc3F)Cc3ccccc32)cnn1C (centres unmarked) [Compound P-14, 2-(2,4-difluorophenyl)sulfanyl-1-[4-(1,5-dimethylpyrazol-4-yl)-3,4-dihydro-1H-isoquinolin-2-yl]ethanone], the inhibition of growth at 20 ppm [1] is reported as ≥ 80% and the inhibition of growth at 20 ppm [2] is reported as ≥ 80%.
Cc1c(C2CN(C(=O)CCCCCC(F)(F)F)Cc3ccccc32)cnn1C (centres unmarked) [Compound P-30, 1-[4-(1,5-dimethylpyrazol-4-yl)-3,4-dihydro-1H-isoquinolin-2-yl]-7,7,7-trifluoro-heptan-1-one] was tested, and the inhibition of growth at 20 ppm [1] was ≥ 80%, the inhibition of growth at 20 ppm [4] was ≥ 80% and the inhibition of growth at 20 ppm [2] was ≥ 80%.
For Cc1c(C2CN(C(=O)OCCCCCF)Cc3ccccc32)cnn1C (centres unmarked) [Compound P-55, 5-fluoropentyl 4-(1,5-dimethylpyrazol-4-yl)-3,4-dihydro-1H-isoquinoline-2-carboxylate], the inhibition of growth at 20 ppm [1] was ≥ 80% and the inhibition of growth at 20 ppm [2] was ≥ 80%.
For Cc1c(C2CN(C(=O)CCCC(C)C)Cc3ccccc32)cnn1C (centres unmarked) [Compound P-19, 1-[4-(1,5-dimethylpyrazol-4-yl)-3,4-dihydro-1H-isoquinolin-2-yl]-5-methyl-hexan-1-one], the inhibition of growth at 20 ppm [1] was ≥ 80% and the inhibition of growth at 20 ppm [2] was ≥ 80%.
With Cc1c(C2CN(C(=O)NCCC3CCCCC3)Cc3ccccc32)cnn1C (centres unmarked) [Compound P-42, N-(2-cyclohexylethyl)-4-(1,5-dimethylpyrazol-4-yl)-3,4-dihydro-1H-isoquinoline-2-carboxamide] the inhibition of growth at 20 ppm [1] was ≥ 80%, the inhibition of growth at 20 ppm [4] was ≥ 80% and the inhibition of growth at 20 ppm [2] was ≥ 80%.
In the case of Cc1c(C2CN(C(=O)NCC3CCCCC3)Cc3ccccc32)cnn1C (centres unmarked) [Compound P-36, N-(cyclohexylmethyl)-4-(1,5-dimethylpyrazol-4-yl)-3,4-dihydro-1H-isoquinoline-2-carboxamide], the inhibition of growth at 20 ppm [2] is reported as ≥ 80% and the pest or weed control at 200 ppm [3] is reported as ≥ 80%.
For Cn1cc(C2CN(C(=O)CCc3ccc(F)cc3F)Cc3ccccc32)cn1 (centres unmarked) [Compound P-1, 3-(2,4-difluorophenyl)-1-[4-(1-methylpyrazol-4-yl)-3,4-dihydro-1H-isoquinolin-2-yl]propan-1-one], the inhibition of growth at 20 ppm [1] was ≥ 80% and the inhibition of growth at 20 ppm [2] was ≥ 80%.
